Reference: patent US20090029855A1, “Quinoline Derivatives and Their Use as Pesticides” (priority 2006, published 2009)

System: Rice Green Leaf Hoppers (Nephoteftix Virescens)
Experiment: Activity against rice green leaf hoppers, foliar spray on rice plants
Format: in vivo
Settings: 300 ppm; after 72 hours
Method: Leaf hopper and plant hoppers adults used for bioassay were obtained from a colony maintained continuously under laboratory conditions. For testing purposes, the test compound was diluted in 300 ppm (wt compound:vol diluent) in a 1:1 mixture of acetone:water, plus 0.1% EL 620 surfactant.
Hopper activity was evaluated using the foliar spray technique. Pofted rice plants (2-3 week old, Variety TN-1) were cleaned and dried prior to application. All plants were treated inside the fume hood using DeVilbiss atomizer at 25 psi with a spray volume of 5 ml/plant. To ensure uniform spray distribution, plants were placed in a rotating flat form inside the fume hood. Treated plants were then placed inside the holding room and allowed to dry for 2 hours. Each plant was caged using Mylar cages (4 inches diameter×19 inches in height) and inoculated with 10 adults hoppers. All test plants were held under continuous light and a temperature of about 28° C. for duration of the assay. Percent mortality was observed after 72 hours.

Question: With `Cc1ccc(-c2ccc(S(=O)(=O)NCc3ccnc4ccccc34)cc2)c(Cl)c1` [I-32] as the compound, how does the mortality read?
Answer: ≥ 75%
